Experimental data: US9764037B2, “Conjugate compounds” (Victoria Link Limited, priority 2012, dated 2017)

Legend:
[1] = HPLC-ESI-MSMS quantification of α-GalCer in formulated test samples; type: physicochemical; conditions: level of α-GalCer in freshly reconstituted formulated samples
Experimental: Compounds of the invention are formulated analogously to reported methods for α-GalCer. Briefly, solubilisation of α-GalCer is based on excipient proportions described by Giaccone et al. (Giaccone, Punt et al. 2002). Thus, 100 μL of a 10 mg/mL solution of α-GalCer or a compound of the invention in 9:1 THF/MeOH is added to 1.78 mL of an aqueous solution of Tween 20 (15.9 mg), sucrose (177 mg) and L-histidine (23.8 mg). This homogeneous mixture is freeze dried and the resulting foam is stored under Ar at −18° C. This material is reconstituted with 1.0 mL of PBS or water prior to serial dilutions in PBS to achieve final injectable solutions of α-GalCer or compounds of the invention.
Quantification of the amount of α-GalCer in various test samples of compounds of the invention is made by HPLC-ESI-MSMS analysis using a Waters 2795 HPLC and a Waters Q-TOF Premier™ Tandem Mass Spectrometer. The chromatography used a Phenomenex Kinetex C18 […] 3.0×50 mm column eluting with isocratic methanol containing 10 mM ammonium formate+0.5% formic acid at a flow rate of 0.2 mL/min. α-GalCer is monitored by selective […] monitoring of 898.7 to 696.7 Da. The estimate of amount of α-GalCer is made by comparison of ion count integrals to a standard curve run on the same day or by comparison to test samples spiked with a known amount of α-GalCer. The level of α-GalCer is determined on freshly reconstituted formulated samples unless otherwise stated

splenic dendritic cells = test: Impact of prior vaccination on response to free α-GalCer two weeks later, CD86 on splenic dendritic cells (FIGS. 6, 7); type: in vivo, mice; conditions: 200 ng α-GalCer intravenously two weeks after vaccination, FIGS. 6 and 7
Experimental: Flow cytometry is used to assess CD86 upregulation on splenic dendritic cells after intravenous injection of 200 ng α-GalCer, which is used as a readout of NKT cell activity. Mean fluorescence index (MFI)±SEM are presented. […] Each dot represents a different animal; mean per treatment group (n=3)±SEM are presented. ***p<0.001, **p<0.01, * p<0.05.

[2] = Ebensen, Link et al. 2007; cited from earlier work
[3] = Giaccone, Punt et al. 2002; cited from earlier work
T-cell = conditions: Parekh, Wilson et al. 2005; cited from earlier work
CD11c+ dendritic cells = test: CD86 expression on splenic dendritic cells after intravenous injection (FIG. 1); type: in vivo, C57BL/6 mice; conditions: 0.571 nmol intravenously, spleens 20 h later
Experimental: Groups of C57BL/6 mice (n=3) are injected intravenously with 0.571 nmol of the indicated compounds and then the spleens removed 20 h later for the analysis of CD86 expression on CD11c^+ dendritic cells by antibody labelling and flow cytometry. Mean fluorescence index (MFI)±SEM are presented.
Antibody staining and flow cytometry is used to examine the expression of maturation markers on dendritic cells in the spleen following injection of compounds of the invention. Splenocyte preparations are prepared by gentle teasing of splenic tissue through gauze in Iscove's Modified Dulbecco's Medium with 2 mM glutamine, 1% penicillin-streptomycin, 5×10^-5 M 2-mercapto-ethanol and 5% fetal bovine serum (all Invitrogen, Auckland, New Zealand), followed by lysis of red blood cells with RBC lysis buffer (Puregene, Gentra Systems, Minneapolis, Minn., USA). Antibody staining is performed in PBS 2% fetal bovine serum and 0.01% sodium azide. The anti-FcgRII monoclonal antibody 2.4G2 is used at […] to inhibit non-specific staining. Monoclonal antibodies (all BD Biosciences Pharmingen, San Jose, Calif., USA) are used to examine expression of the maturation markers CD40, CD80 and CD86 on CD11c+ dendritic cells.

[4] = tested on: SIINFEKL-specific T cells; test: Analysis of peptide-specific T cell proliferation in vivo (FIGS. 2, 5, 8, 9); design: species or system mice
Experimental: (SEQ ID NO:262) peptide in each case. To increase sensitivity of the assay, all mice are initially donated a cohort of 10,000 […] (SEQ ID NO:262)-specific T cells from a transgenic mouse encoding a T cell receptor for this antigen (OT-1 mice) by intravenous injection of the cells one day before the vaccines are administered. […] It is therefore possible to enumerate […] (SEQ ID NO:262)-specific T cells in blood by flow cytometry using antibodies for CD45.1 together with antibodies for the transgenic T cell receptor (Vα2). […] Control animals are injected with the diluent phosphate-buffered saline (PBS). […] Each dot represents a different animal; mean per treatment group±SEM are presented.
Accumulation of antigen-specific T cells in the blood in response to vaccination is measured 7 days later, as described for FIG. 2.
Pooled lymph node cell suspensions are prepared from animals of a cross between OT-I mice, which express a transgenic T cell receptor (TCR) specific for the ovalbumin epitope […] in the context of H-2K^b molecules, and B6.SJL-Ptprc^a Pepc^b/BoyJ mice, which are congenic with C57BL/6 mice for the CD45.1^+ marker. The samples are enriched for CD8^+ cells using antibody coated magnetic beads (Miltenyi), and then transferred into recipient mice (1×10^4 per mouse). Groups of recipient animals (n=5) are immunized with compounds of the invention one day later. Doses are chosen to provide equivalent molar values of […] peptide. Control animals receive phosphate-buffered saline. After seven days, blood samples are collected from the lateral tail vein and stained directly ex vivo with antibodies for TCR Vα2, CD45.1 and CD8 to detect the […]-specific CD8^+ T cells by flow cytometry.

[5] = tested on: leukocyte infiltration into the lungs; test: Allergic airway inflammation in OVA-sensitized animals (FIG. 13); type: in vivo, mice; conditions: three days after challenge
Experimental: Control animals receive intranasal PBS instead of challenge, and positive control groups receive challenge but no treatment (“OVA”). The prodrug vaccines and admixed α-GalCer and peptide are administered seven days before challenge […], while the in vitro activated OVA257-specific CTL are administered one day before challenge (day 23). The total numbers of cells in BAL fluid (left), and numbers of eosinophils (right), are evaluated three days after challenge by flow cytometry.

| Molecule | α-GalCer/injection [1] [ng] | DC activation (CD86 upregulation) on administration of free α-GalCer after earlier vaccination (splenic dendritic cells) | solubility [2] | efficacy in human clinical trials [3] | T-cell anergy (T-cell) | activation of DCs (expression of activation marker CD86 on splenic DCs) (CD11c+ dendritic cells) | T cell expansion on repeated administration ([4]; FIG. 8) | T cell response on boosting after priming with SIINFEKL with α-GalCer (unconjugated) ([4]; boost day 14 or 35, read day 21 or 42, blood, FIG. 9) | dependence of the T cell response on langerin+ CD8α+ DCs ([4]; depletion by diphtheria toxin, FIG. 2) | population of SIINFEKL-specific T cells (Vα2+ CD45.1+) in blood ([4]; intravenous vaccination, compared with admixed α-GalCer and peptide, lang-EGFPDTR mice, FIG. 2) | leukocyte infiltration into the lungs (total number of cells in BAL fluid) ([5]; vaccination of sensitized mice one week before challenge) | infiltration of eosinophils (BAL fluid) ([5]; vaccination seven days before challenge) |
| --- | --- | --- | --- | --- | --- | --- | --- | --- | --- | --- | --- | --- |
| CCCCCCCCCCCCCCCCCCCCCCCCCC(=O)OC(CCCCCCCCCCCCCC)C(O)C(COC1OC(CO)C(O)C(O)C1O)NC(=O)OCc1ccc(NC(=O)C(CCCNC(N)=O)NC(=O)C(NC(=O)OCc2ccccc2)C(C)C)cc1 [CN165, (2S,3S,4R)-1-O-α-D-Galactopyranosyl-4-O-hexacosanoyl-2-(N-Cbz-Val-Cit-4-aminobenzyloxycarbonylamino) octadecane-1,3,4-triol] | 0.028 | some DC activation |  |  |  |  |  |  |  |  |  |  |
| CCCCCCCCCCCCCCCCCCCCCCCCCC(=O)OC(CCCCCCCCCCCCCC)C(O)C(COC1OC(CO)C(O)C(O)C1O)NC(=O)OCc1ccc(NC(=O)C(CCCCN)NC(=O)C(Cc2ccccc2)NC(=O)OCc2ccccc2)cc1 [CN166, (2S,3S,4R)-1-O-α-D-Galactopyranosyl-4-O-hexacosanoyl-2-(N-Cbz-Phe-Lys-4-aminobenzyloxycarbonylamino) octadecane-1,3,4-triol] | 0.136 | some DC activation |  |  |  |  |  |  |  |  |  |  |
| CCCCCCCCCCCCCCCCCCCCCCCCCC(=O)N[C@@H](CO[C@H]1O[C@H](CO)[C@H](O)[C@H](O)[C@H]1O)[C@H](O)[C@H](O)CCCCCCCCCCCCCC [α-GalCer, α-Galactosylceramide] |  | no measurable activation of DCs | poor solubility | lack of efficacy | promotion of T-cell anergy |  |  |  |  |  |  |  |
| (2S,3S,4R)-1-O-α-D-Galactopyranosyl-4-hexacosanoyl-2-((4-(2-(FFRKSIINFEKL)-2-oxoethoxy)imino)pentanoyloxy)methoxycarbonylamino) octadecane-1,3,4-triol [CN152] | 0.05 | some DC activation |  |  |  | potently activates DCs | induces further T cell expansion | induces measurable T cell responses | dependent on langerin^+ CD8α^+ DCs | larger population of peptide-specific T cells | significantly suppress leukocyte infiltration into the lungs | superior to both CN178 and admixed groups |
